Columns and labels:
Type in all cases: cell-based
HeLa KRas G12C cells = experiment: Cellular growth inhibition assay (CTG), HeLa KRas G12C cells; details: Homo sapiens, CellTiter-Glo 2.0, day-5
Outline: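 Cells were seeded at 250 cells/well (continuous) or 1000 cells/well (washout, compound removed after 4 h), then treated after 24 h with 3-fold dilutions from a 10 μM or 30 μM final top concentration. CellTiter-Glo 2.0 luminescence at day 0 and day 5 was normalized to DMSO day-0 wells; GI50 from four-parameter fit.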

GSPT1 = biological target: T1, GSPT1 (Homo sapiens, UniProt P15170+Q96SW2); experiment: GSPT1 HiBit degradation assay; details: HEK293 LgBiT cells expressing GSPT1_HiBiT, luminescence after 6 hours
T1 construct: host or cells: HEK293 LgBiT cell line
T1 sequence (P15170 whole entry): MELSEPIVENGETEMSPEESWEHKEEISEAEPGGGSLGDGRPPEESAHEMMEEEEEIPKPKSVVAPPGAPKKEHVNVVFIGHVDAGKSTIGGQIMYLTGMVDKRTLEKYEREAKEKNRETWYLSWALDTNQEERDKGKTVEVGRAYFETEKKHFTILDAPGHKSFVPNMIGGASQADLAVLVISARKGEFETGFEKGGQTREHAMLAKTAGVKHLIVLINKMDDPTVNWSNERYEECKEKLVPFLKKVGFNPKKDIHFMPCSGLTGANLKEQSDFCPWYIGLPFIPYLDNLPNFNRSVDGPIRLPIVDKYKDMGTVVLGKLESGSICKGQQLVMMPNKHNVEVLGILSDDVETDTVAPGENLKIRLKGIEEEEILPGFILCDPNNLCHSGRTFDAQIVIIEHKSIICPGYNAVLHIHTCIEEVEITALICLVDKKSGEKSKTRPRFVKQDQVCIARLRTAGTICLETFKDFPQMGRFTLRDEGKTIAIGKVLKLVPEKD
T1 sequence (Q96SW2 whole entry): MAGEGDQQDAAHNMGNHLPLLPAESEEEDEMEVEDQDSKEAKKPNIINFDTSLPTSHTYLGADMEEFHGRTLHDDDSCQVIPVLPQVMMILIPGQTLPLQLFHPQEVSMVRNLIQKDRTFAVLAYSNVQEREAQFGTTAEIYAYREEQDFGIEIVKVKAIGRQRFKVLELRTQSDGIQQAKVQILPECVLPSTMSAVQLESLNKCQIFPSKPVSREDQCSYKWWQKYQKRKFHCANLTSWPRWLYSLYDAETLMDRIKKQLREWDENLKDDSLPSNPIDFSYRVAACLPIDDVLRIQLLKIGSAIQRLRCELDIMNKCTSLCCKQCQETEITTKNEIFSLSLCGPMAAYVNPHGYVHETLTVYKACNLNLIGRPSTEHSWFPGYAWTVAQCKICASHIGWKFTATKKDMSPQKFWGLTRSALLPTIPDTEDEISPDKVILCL
T1 sequence (Q16531 whole entry partner): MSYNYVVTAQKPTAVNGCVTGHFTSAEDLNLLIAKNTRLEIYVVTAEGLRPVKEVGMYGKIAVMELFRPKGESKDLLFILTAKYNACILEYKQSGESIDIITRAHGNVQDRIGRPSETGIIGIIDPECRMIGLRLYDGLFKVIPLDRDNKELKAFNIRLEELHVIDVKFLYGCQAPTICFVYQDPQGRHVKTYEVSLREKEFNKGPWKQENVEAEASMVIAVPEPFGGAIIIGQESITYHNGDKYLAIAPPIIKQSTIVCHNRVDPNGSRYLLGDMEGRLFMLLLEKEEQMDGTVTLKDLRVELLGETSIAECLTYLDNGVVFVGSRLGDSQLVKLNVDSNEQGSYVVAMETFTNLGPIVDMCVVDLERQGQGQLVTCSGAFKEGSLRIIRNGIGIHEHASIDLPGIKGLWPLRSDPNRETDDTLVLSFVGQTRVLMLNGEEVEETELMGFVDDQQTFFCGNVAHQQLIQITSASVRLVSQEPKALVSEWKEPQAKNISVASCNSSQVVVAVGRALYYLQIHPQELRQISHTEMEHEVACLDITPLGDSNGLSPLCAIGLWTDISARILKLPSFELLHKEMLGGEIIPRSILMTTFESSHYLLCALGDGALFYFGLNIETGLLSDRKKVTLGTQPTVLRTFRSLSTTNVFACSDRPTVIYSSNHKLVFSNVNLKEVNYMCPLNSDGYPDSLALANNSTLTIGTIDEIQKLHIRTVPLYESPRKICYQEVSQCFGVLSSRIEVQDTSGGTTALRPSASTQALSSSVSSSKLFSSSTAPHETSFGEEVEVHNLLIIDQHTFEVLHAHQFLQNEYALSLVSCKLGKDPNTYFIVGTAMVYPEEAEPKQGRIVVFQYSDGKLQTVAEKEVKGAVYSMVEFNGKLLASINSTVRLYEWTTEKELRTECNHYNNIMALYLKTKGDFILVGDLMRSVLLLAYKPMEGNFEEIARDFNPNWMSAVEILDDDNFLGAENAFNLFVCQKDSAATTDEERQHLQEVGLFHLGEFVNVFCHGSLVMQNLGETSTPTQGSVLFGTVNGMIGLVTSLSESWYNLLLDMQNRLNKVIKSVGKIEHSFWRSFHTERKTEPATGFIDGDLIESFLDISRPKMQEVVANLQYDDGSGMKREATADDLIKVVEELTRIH
Outline: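 HEK293 cells stably expressing LgBiT and GSPT1-HiBiT, seeded 18-24 h before dosing, were treated with titrated compound plus endurazine (0.5× final) at 37 °C. Luminescence loss after 6 h reflects GSPT1 degradation; DC50 is the concentration giving 50% degradation.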

[1] = test system: 293 mutant EGFR_T790M L858R Cells; experiment: Cellular growth inhibition assay (CTG), 293 mutant EGFR_T790M L858R cells; details: 293 mutant EGFR T790M L858R cells, CellTiter-Glo 2.0, day-5
Description: Cells were seeded in Poly-D-lysine-treated 384-well white plates, with 25 μL cell suspension at 250 cells/well for continuous treatments, and 1000 cells/well for washout treatments. Plates were spun at 300×g for 3 minutes, and cells were cultured at 37° C. with 5% CO2 in a humidified tissue culture incubator.
After 24 hours, the test compounds were diluted with cell culture medium in 96 deep well plates. DMSO was used as a negative control. A 25 μL aliquot of compound-containing medium was added in each well, at a final top concentration of 10 μM or 30 μM test compound, with 3-fold dilutions. For washout assays, after 4 hours, cell medium with compound was removed, and the cells were washed with 75p L fresh medium. Plates were then spun at 300×g for 3 minutes and replaced with 50 μL fresh medium in each well. Plates were then spun at 300×g for 3 minutes again and cultured at 37° C. with 5% CO2.
At day-0 and day-5 of compound treatments, cell viability was quantified with CellTiter-Glo 2.0 (Promega). After equilibrating cell plates at room temperature for 30 minutes, 25 μL CellTiter-Glo 2.0 reagent was dispensed into each well (on top of 50 μL of cell culture). Plates were mixed on a shaker for 2 minutes at 500 rpm, followed by a 10-minute incubation at room temperature. Luminescence readings were measured with an EnVision Plate Reader. Data was normalized to DMSO treated day-0 cell wells. A four-parameter non-linear regression curve fit was applied to dose-response data in Prism to determine the half maximal growth inhibitory concentration (GI50) of each compound.

SMILES: C=C(F)C(=O)N1CCN(c2nc(OC[C@@H]3CCCN3CCOCCOCCOCCOCCOCCOCCOCCOCCOCCOCCOCCOCCOCCOCCCCCCCCc3cc(Cl)cc(NC(=O)NCc4ccc5c(c4)CN(C4CCC(=O)NC4=O)C5=O)c3)nc3c2CCN(c2cccc4cccc(Cl)c24)C3)C[C@@H]1CC#N (some centres unmarked) [Compound I-47]
- GI50 (HeLa KRas G12C cells): < 1 µM
- DC50 (GSPT1; Table 3): < 0.25 µM

SMILES: C=C(F)C(=O)N1CCN(c2nc(OC[C@@H]3CCCN3CCOCCOCCCCCCCCCCCCCCc3cc(Cl)cc(NC(=O)NCc4ccc5c(c4)CN(C4CCC(=O)NC4=O)C5=O)c3)nc3c2CCN(c2cccc4cccc(Cl)c24)C3)C[C@@H]1CC#N (some centres unmarked) [Compound I-48]
- GI50 (HeLa KRas G12C cells): 3 to 10 µM
- DC50 (GSPT1; Table 3): 0.25 to 5 µM

SMILES: C=C(F)C(=O)N1CCN(c2nc(OC[C@@H]3CCCN3CCOCCOCCOCCOCCCCCCCCCCCCCCc3cc(Cl)cc(NC(=O)NCc4ccc5c(c4)CN(C4CCC(=O)NC4=O)C5=O)c3)nc3c2CCN(c2cccc4cccc(Cl)c24)C3)C[C@@H]1CC#N (some centres unmarked) [Compound I-49]
- GI50 (HeLa KRas G12C cells): > 10 µM
- DC50 (GSPT1; Table 3): 0.25 to 5 µM

SMILES: C=C(F)C(=O)N1CCN(c2nc(OC[C@@H]3CCCN3CCOCCOCCOCCOCCOCCOCCCCCCCCCCCCCCc3cc(Cl)cc(NC(=O)NCc4ccc5c(c4)CN(C4CCC(=O)NC4=O)C5=O)c3)nc3c2CCN(c2cccc4cccc(Cl)c24)C3)C[C@@H]1CC#N (some centres unmarked) [Compound I-50]
- GI50 (HeLa KRas G12C cells): < 1 µM
- DC50 (GSPT1; Table 3): 0.25 to 5 µM

SMILES: C=C(F)C(=O)N1CCN(c2nc(OC[C@@H]3CCCN3CCOCCOCCOCCOCCOCCOCCOCCOCCCCCCCCCCCCCCc3cc(Cl)cc(NC(=O)NCc4ccc5c(c4)CN(C4CCC(=O)NC4=O)C5=O)c3)nc3c2CCN(c2cccc4cccc(Cl)c24)C3)C[C@@H]1CC#N (some centres unmarked) [Compound I-51]
- GI50 (HeLa KRas G12C cells): < 1 µM
- DC50 (GSPT1; Table 3): 0.25 to 5 µM

SMILES: C=C(F)C(=O)N1CCN(c2nc(OC[C@@H]3CCCN3CCOCCOCCOCCOCCOCCOCCOCCOCCOCCOCCCCCCCCCCCCCCc3cc(Cl)cc(NC(=O)NCc4ccc5c(c4)CN(C4CCC(=O)NC4=O)C5=O)c3)nc3c2CCN(c2cccc4cccc(Cl)c24)C3)C[C@@H]1CC#N (some centres unmarked) [Compound I-52]
- GI50 (HeLa KRas G12C cells): < 1 µM
- DC50 (GSPT1; Table 3): 0.25 to 5 µM

SMILES: C=C(F)C(=O)N1CCN(c2nc(OC[C@@H]3CCCN3CCOCCOCCOCCOCCOCCOCCOCCOCCOCCOCCOCCOCCCCCCCCCCCCCCc3cc(Cl)cc(NC(=O)NCc4ccc5c(c4)CN(C4CCC(=O)NC4=O)C5=O)c3)nc3c2CCN(c2cccc4cccc(Cl)c24)C3)C[C@@H]1CC#N (some centres unmarked) [Compound I-53]
- GI50 (HeLa KRas G12C cells): < 1 µM
- DC50 (GSPT1; Table 3): < 0.25 µM

SMILES: C=C(F)C(=O)N1CCN(c2nc(OC[C@@H]3CCCN3CCOCCOCCOCCOCCOCCCCCc3cc(Cl)cc(NC(=O)NCc4ccc5c(c4)CN(C4CCC(=O)NC4=O)C5=O)c3)nc3c2CCN(c2cccc4cccc(Cl)c24)C3)C[C@@H]1CC#N (some centres unmarked) [Compound I-54]
- GI50 (HeLa KRas G12C cells): < 1 µM
- DC50 (GSPT1; Table 3): 0.25 to 5 µM

SMILES: C=CC(=O)Nc1cc(Nc2nccc(-c3cn(C)c4ccccc34)n2)c(OC)cc1N(C)CCN(C)CCOCCOCCOCCCCCc1cc(Cl)cc(NC(=O)NCc2ccc3c(c2)CN(C2CCC(=O)NC2=O)C3=O)c1 (centres unmarked) [Compound I-102]
- GI50 [1]: 1 to 5 µM
- DC50 (GSPT1; Table 3A): 0.25 to 5 µM

SMILES: CN(C/C=C/C(=O)N1CCN(c2nc(OC[C@@H]3CCCN3C)nc3c2CCN(c2cccc4cccc(Cl)c24)C3)C[C@@H]1CC#N)CCOCCOCCOCCOCCOCCCCCc1cc(Cl)cc(NC(=O)NCc2ccc3c(c2)CN(C2CCC(=O)N(C)C2=O)C3=O)c1 (some centres unmarked) [Compound I-116]
- GI50 (HeLa KRas G12C cells): 1 to 3 µM
- DC50 (GSPT1; Table 3A): 0.25 to 5 µM

SMILES: C=C(F)C(=O)N1CCN(c2nc(OC[C@@H]3CCCN3CCCOCCOCCOCCOCCOCCOCCOCCCCCc3cc(Cl)cc(NC(=O)NCc4ccc5c(c4)CN(C4CCC(=O)NC4=O)C5=O)c3)nc3c2CCN(c2cccc4cccc(Cl)c24)C3)C[C@@H]1CC#N (some centres unmarked) [Compound I-118]
- GI50 (HeLa KRas G12C cells): 1 to 3 µM
- DC50 (GSPT1; Table 3A): 0.25 to 5 µM

SMILES: COc1cc(N2CCN(C(=O)COCCOCCOCCOCCOCCOCCOCCCCCc3cc(Cl)cc(NC(=O)NCc4ccc5c(c4)CN(C4CCC(=O)NC4=O)C5=O)c3)CC2)ccc1Nc1ncc(Cl)c(Nc2ccccc2P(C)(C)=O)n1 (centres unmarked) [Compound I-120]
- GI50 [1]: 1 to 5 µM
- DC50 (GSPT1; Table 3A): 0.25 to 5 µM

SMILES: C=CC(=O)N[C@@H]1CN(c2nc(Nc3cn(CCOCCOCCOCCCCCc4cc(Cl)cc(NC(=O)NCc5ccc6c(c5)CN(C5CCC(=O)NC5=O)C6=O)c4)nc3OC)c3ncn(C)c3n2)C[C@H]1F (some centres unmarked) [Compound I-122]
- GI50 [1]: 0.1 to 1 µM
- DC50 (GSPT1; Table 3A): < 0.25 µM

SMILES: C=CC(=O)Nc1cc(Nc2nccc(-c3cn(C)c4ccccc34)n2)c(OC)cc1N(C)CCN(C)CCOCCOCCOCCOCCOCCCCCc1cc(Cl)cc(NC(=O)NCc2ccc3c(c2)CN(C2CCC(=O)NC2=O)C3=O)c1 (centres unmarked) [Compound I-125]
- GI50 [1]: 1 to 5 µM
- DC50 (GSPT1; Table 3A): 0.25 to 5 µM

SMILES: C=CC(=O)NC1CN(c2nc(Nc3cn(CCOCCOCCOCCOCCOCCOCCOCCCCCc4cc(Cl)cc(NC(=O)NCc5ccc6c(c5)CN(C5CCC(=O)NC5=O)C6=O)c4)nc3OC)c3ncn(C)c3n2)C[C@H]1F (some centres unmarked) [Compound I-130]
- GI50 [1]: 0.1 to 1 µM
- DC50 (GSPT1; Table 3A): 0.25 to 5 µM

SMILES: COc1nn(C)cc1Nc1nc(N2CC(NC(=O)/C=C/CN(C)CCOCCOCCOCCOCCOCCOCCOCCOCCOCCCCCc3cc(Cl)cc(NC(=O)NCc4ccc5c(c4)CN(C4CCC(=O)NC4=O)C5=O)c3)[C@H](F)C2)nc2c1ncn2C (some centres unmarked) [Compound I-131]
- GI50 [1]: 1 to 5 µM
- DC50 (GSPT1; Table 3A): 0.25 to 5 µM

SMILES: COc1cc(N(C)CCN(C)C)c(NC(=O)/C=C/CN(C)CCOCCOCCOCCOCCOCCOCCOCCOCCOCCCCCc2cc(Cl)cc(NC(=O)NCc3ccc4c(c3)CN(C3CCC(=O)NC3=O)C4=O)c2)cc1Nc1nccc(-c2cn(C)c3ccccc23)n1 (centres unmarked) [Compound I-132]
- GI50 [1]: 1 to 5 µM
- DC50 (GSPT1; Table 3A): 0.25 to 5 µM

SMILES: C=C(F)C(=O)N1CCN(c2nc(OC[C@@H]3CCCN3CCCOCCOCCOCCOCCOCCOCCOCCOCCOCCCCCc3ccc(Cl)cc3NC(=O)NCc3ccc4c(c3)CN(C3CCC(=O)NC3=O)C4=O)nc3c2CCN(c2cccc4cccc(Cl)c24)C3)C[C@@H]1CC#N (some centres unmarked) [Compound I-134]
- GI50 (HeLa KRas G12C cells): 3 to 10 µM
- DC50 (GSPT1; Table 3A): 0.25 to 5 µM

SMILES: C=C(F)C(=O)N1CCN(c2nc(OC[C@@H]3CCCN3CCCOCCOCCOCCOCCOCCOCCOCCCCCc3ccc(Cl)cc3NC(=O)NCc3ccc4c(c3)CN(C3CCC(=O)NC3=O)C4=O)nc3c2CCN(c2cccc4cccc(Cl)c24)C3)C[C@@H]1CC#N (some centres unmarked) [Compound I-137]
- GI50 (HeLa KRas G12C cells): 3 to 10 µM
- DC50 (GSPT1; Table 3A): 0.25 to 5 µM

SMILES: C=C(F)C(=O)N1CCN(c2nc(OC[C@@H]3CCCN3CCCOCCOCCOCCOCCOCCOCCOCCOCCOCCOCCOCCCCCc3ccc(Cl)cc3NC(=O)NCc3ccc4c(c3)CN(C3CCC(=O)NC3=O)C4=O)nc3c2CCN(c2cccc4cccc(Cl)c24)C3)C[C@@H]1CC#N (some centres unmarked) [Compound I-138]
- GI50 (HeLa KRas G12C cells): 3 to 10 µM
- DC50 (GSPT1; Table 3A): 0.25 to 5 µM

SMILES: COc1cc(N(C)CCN(C)C)c(NC(=O)/C=C/CN(C)CCOCCOCCOCCCCCc2cc(Cl)cc(NC(=O)NCc3ccc4c(c3)CN(C3CCC(=O)NC3=O)C4=O)c2)cc1Nc1nccc(-c2cn(C)c3ccccc23)n1 (centres unmarked) [Compound I-145]
- GI50 [1]: 1 to 5 µM
- DC50 (GSPT1; Table 3A): 0.25 to 5 µM

SMILES: COc1cc(N(C)CCN(C)C)c(NC(=O)/C=C/CN(C)CCOCCOCCOCCOCCOCCOCCOCCCCCc2cc(Cl)cc(NC(=O)NCc3ccc4c(c3)CN(C3CCC(=O)NC3=O)C4=O)c2)cc1Nc1nccc(-c2cn(C)c3ccccc23)n1 (centres unmarked) [Compound I-146]
- GI50 [1]: 1 to 5 µM
- DC50 (GSPT1; Table 3A): 0.25 to 5 µM

SMILES: C=C(F)C(=O)N1CCN(c2nc(OC[C@@H]3CCCN3CCCOCCOCCOCCOCCOCCOCCOCCCCCc3cccc(NC(=O)NCc4ccc5c(c4)CN(C4CCC(=O)NC4=O)C5=O)n3)nc3c2CCN(c2cccc4cccc(Cl)c24)C3)C[C@@H]1CC#N (some centres unmarked) [Compound I-147]
- GI50 (HeLa KRas G12C cells): 3 to 10 µM
- DC50 (GSPT1; Table 3A): 5 to 10 µM

SMILES: C=C(F)C(=O)N1CCN(c2nc(OC[C@@H]3CCCN3CCCOCCOCCOCCOCCOCCOCCOCCOCCOCCOCCOCCCCCc3cccc(NC(=O)NCc4ccc5c(c4)CN(C4CCC(=O)NC4=O)C5=O)n3)nc3c2CCN(c2cccc4cccc(Cl)c24)C3)C[C@@H]1CC#N (some centres unmarked) [Compound I-148]
- GI50 (HeLa KRas G12C cells): 3 to 10 µM
- DC50 (GSPT1; Table 3A): 0.25 to 5 µM

SMILES: C=C(F)C(=O)N1CCN(c2nc(OC[C@@H]3CCCN3CCCOCCOCCOCCOCCOCCCCCc3cccc(NC(=O)NCc4ccc5c(c4)CN(C4CCC(=O)NC4=O)C5=O)n3)nc3c2CCN(c2cccc4cccc(Cl)c24)C3)C[C@@H]1CC#N (some centres unmarked) [Compound I-152]
- GI50 (HeLa KRas G12C cells): 3 to 10 µM
- DC50 (GSPT1; Table 3A): > 10 µM

Reference: patent US20240238424A1, “HETEROBIFUNCTIONAL COMPOUNDS AND METHODS OF TREATING DISEASE” (Halda Therapeutics OpCo, Inc., priority 2021, published 2024)
